# Source: paper PMC7937321 (Genes and Environment, 2021)
# Like-named read-outs stand apart in the source and are kept apart here.
# How the values were obtained:
# [1] = test system: L5178Y mouse lymphoma cells; conditions: cited from earlier work; for MLA (TK gene locus), With S9 / MLA (TK gene locus), Without S9: [46]-[53], Table 3; for MLA (−S9): substance with high purity
# [2] = test system: TK6 cells; conditions: human
# Description: (§1) Briefly, test substances were dissolved in an appropriate solvent (DMSO or ethanol) and then serially diluted to prepare final concentrations. […] The 4 h and 24 h treatments were conducted by shaking and static exposures, respectively. After treatment with test substances, cells were centrifuged (1000 rpm, 5 min), supernatants were removed, and cells were washed with a serum-free medium or Hank’s Balanced Salt Solution. After centrifugation (1000 rpm, 5 min) to remove the supernatant, cells (2 × 10^7 cells) were dispersed in an RPMI medium containing 10% serum, and cell concentration was measured. Treated cells were cultured at 37 °C with 5% CO2 condition and used for TK6 assays. At that time, to calculate the cloning efficiency (CE) (Eq. 1), the cells were cultured in a 96-well microplate at a concentration of about 1.6 cells/well for 2 weeks.
# (§2) CE, the cell colony formation rate, was calculated using Eq. 1 according to the Poisson distribution equation. EW was the number of wells without colonies, and TW was the total number of wells. N was the average number of cells per well (N = 1.6). 1 CE=−lnEW/TW/N
# (§3) Additionally, CE was adjusted by the following calculation (Eq. 2) due to cell loss when exposure caused cytotoxicity. “The number of cells at the end of the treatment” was the number of cells obtained after centrifugation at the end of the treatment in the above-described exposure treatment of the test substance. The “cell number at the start of treatment” was 2 × 10^7. 2 AdjustedCE=CE×number of cellsatendof treatment/number of cellsatthe start of treatment
# (§4) CE0 seeding, in which cells were seeded immediately after treatment, and CE3 seeding, in which cells were seeded 3 days after treatment, to examine cell viability in the TK6 assay described below. The relative cell viability RS0 (%) just after the treatment with the test substance was calculated from CE0, following Eq. 3. The survival rate of the negative control group was defined as 100%. 3 RS0%=adjusted CE0 of treatment culture/adjusted CE0 of solvent control×100
# (§5) The TK6 assay is conducted between 20 and 10% RS0 as a maximum dose if cytotoxicity is observed. […] When the main TK6 assay was difficult to conduct under the condition of RS0 values from 20 to 10%, the test was conducted between 20 and 10% relative total growth (RTG), described later, as a maximum dose.
# (§6) Besides RS0, relative suspension growth (RSG) and RTG as other cytotoxicity indices (Eq. 4) were used. When cells were cultured for 3 days after treatment with the test substance, suspension cell growth ratio 1 (SG1) was the growth ratio from day 0 to day 1 (cell concentration on day 1/cell concentration on day 0). The suspension cell growth ratio 2 (SG2) was the growth ratio from day 1 to day 2 (cell concentration on day 2/cell concentration on day 1). The RSG value was calculated by dividing the total SG value of the untreated group for 3 days by the total SG value of the treated group for the same 3 days (Eq. 4).
# (§7) On the third day of culture, CE3 plates for determining plating efficiency and mutant frequency (MF) plates for mutation detection were prepared. CE3 plates were seeded in 96-well microplates at a concentration of about 1.6 cells/well.
# [3] = test system: rodent; conditions: cited from earlier work; for Carcinogenicity Studies: rodent, ref [20]-[41], Table 2; for carcinogenicity classification: ref [84]
# [4] = test system: human lymphoblastoid TK6 cells, thymidine kinase gene
# Description: (§8) In principle, this collaborative study conducted the treatment of test substances, the dose finding, and the main test of TK6 assays, according to the OECD Guideline TG490 [17]. […] Briefly, test substances were dissolved in an appropriate solvent (DMSO or ethanol) and then serially diluted to prepare final concentrations. […] The 4 h and 24 h treatments were conducted by shaking and static exposures, respectively. After treatment with test substances, cells were centrifuged (1000 rpm, 5 min), supernatants were removed, and cells were washed with a serum-free medium or Hank’s Balanced Salt Solution. After centrifugation (1000 rpm, 5 min) to remove the supernatant, cells (2 × 10^7 cells) were dispersed in an RPMI medium containing 10% serum, and cell concentration was measured. Treated cells were cultured at 37 °C with 5% CO2 condition and used for TK6 assays. At that time, to calculate the cloning efficiency (CE) (Eq. 1), the cells were cultured in a 96-well microplate at a concentration of about 1.6 cells/well for 2 weeks.
# (§9) The TK6 assay is conducted between 20 and 10% RS0 as a maximum dose if cytotoxicity is observed. If no precipitate or limiting cytotoxicity was observed, the maximum dose was the lowest concentration among 10 mM, 2 mg/mL, or 2 μL/mL of the test substance. When the main TK6 assay was difficult to conduct under the condition of RS0 values from 20 to 10%, the test was conducted between 20 and 10% relative total growth (RTG), described later, as a maximum dose.
# (§10) On the third day of culture, CE3 plates for determining plating efficiency and mutant frequency (MF) plates for mutation detection were prepared. CE3 plates were seeded in 96-well microplates at a concentration of about 1.6 cells/well. The MF plates were seeded in 96-well microplates at 40,000 cells/well in the presence of 3 μg/mL of trifluorothymidine (Sigma Aldrich).
# (§11) Mutant colonies in MF plates were calculated using Eq. 7 using the Poisson distribution. EW was the number of wells without colonies, and TW was the total number of wells. N was the average number of cells per well (N = 40,000 in this study). The data were statistically analyzed by Omori’s method, a modified Dunnett’s procedure for identifying clear negatives, a Simpson–Margolin procedure for detecting downturn data, and a trend test to evaluate the dose dependency [42, 43]. The acceptability criterion for the test was that the MF value of the positive control group of each laboratory was increased with statistical significance compared with that of the concurrent negative control group.
# [5] = test system: TA1538, TA100, TA98, TA97, TA1535; conditions: cited from earlier work; for Bacterial reverse mutation assay, With S9 / Bacterial reverse mutation assay, Without S9: ref [18]-[40], Table 2
# [6] = test system: TK6 cells; assay: Cytotoxicity in the TK6 assay (CE, RS, RSG, RTG); conditions: for CE0 / RS0 / Adjusted CE0 / Adjusted CE0(%) / CE0 (%) / RS0 (%): Day 0
# Description: as §1, §2, §3, §4, §5, §6, §7
# [7] = test system: human lymphoblastoid TK6 cells, thymidine kinase gene; assay: TK gene mutation assay (TK6 assay, OECD TG490)
# Description: as §8, §9, §10, §11
# [8] = Short treatment, +S9 mix, 24.1 μg/mL
# [9] = Short treatment, +S9 mix, 48.1 μg/mL
# [10] = Short treatment, +S9 mix, 96 μg/mL
# [11] = Short treatment, +S9 mix, 770 μg/mL
# [12] = Short treatment, -S9 mix, 24.10 μg/mL
# [13] = Short treatment, -S9 mix, 48.10 μg/mL
# [14] = Short treatment, -S9 mix, 96.30 μg/mL
# [15] = dose 6.02 μg/mL, 24h treatment, -S9 mix
# [16] = dose 24.10 μg/mL, 24h treatment, -S9 mix
# [17] = dose 24.1 μg/mL, short treatment, +S9 mix
# [18] = dose 48.1 μg/mL, 24h treatment, -S9 mix
# [19] = dose 48.1 μg/mL, short treatment, +S9 mix
# [20] = dose 96 μg/mL, short treatment, +S9 mix
# [21] = dose 96.3 μg/mL, 24h treatment, -S9 mix
# [22] = Long-term treatment without metabolic activation
# [23] = Short-term treatment with metabolic activation
# [24] = Short-term treatment without metabolic activation
smiles,measurement,setting,value
"Cc1cc(N)ccc1N [2,5-Diaminotoluene]",MLA result,"[1]; NTP database, ref [54]",positive
same,MLA result,"[1]; reported by SCCS, ref [46]",negative
same,"MLA (TK gene locus), With S9",[1]; ref [27],Inconclusive^c
same,"MLA (TK gene locus), Without S9",[1]; ref [27],Inconclusive^c
same,CE3 (cell viability on Day 3),[2],92.1%
same,cytotoxicity,[2],About 80%
same,Carcinogenicity Studies,[3],Neg
same,TK6 assay overall judgment,[4],negative
same,"TK mutation assay, Long term",[4],Neg
same,"TK mutation assay, With S9",[4],Neg
same,"TK mutation assay, Without S9",[4],Neg
Nc1ccc([N+](=O)[O-])cc1N [4-Nitro-o-phenylenediamine],"MLA (TK gene locus), With S9",[1]; ref [27],Pos
same,"MLA (TK gene locus), Without S9",[1]; ref [27],Pos
same,The Highest Specific Activity and the Strain,"[5]; TA100 without S9, ref Table 2","41,400 revertants/mg in TA100 without S9"
same,specific activity values obtained from Ames test,[5]; ref Table 2,"exceeding 10,000 revertants per milligram"
same,"Bacterial reverse mutation assay, With S9",[5],Pos
same,"Bacterial reverse mutation assay, Without S9",[5],Pos
same,CE0,[6]; [8],81.6%
same,RS0,[6]; [8],97.0%
same,CE3,"[6]; Short treatment, +S9 mix, 24.1 μg/mL, Day 3",92.1%
same,Daily cell growth Day 1×2×3,[6]; [9],13.43
same,RSG,[6]; [9],0.703
same,Adjusted CE0,[6]; [9],81.2%
same,CE0,[6]; [9],84.1%
same,RS0,[6]; [9],101.5%
same,CE3,"[6]; Short treatment, +S9 mix, 48.1 μg/mL, Day 3",84.1%
same,Daily cell growth Day 1×2×3,[6]; [10],13.64
same,RSG,[6]; [10],0.714
same,Adjusted CE0,[6]; [10],62.7%
same,CE0,[6]; [10],66.7%
same,RS0,[6]; [10],78.3%
same,CE3,"[6]; Short treatment, +S9 mix, 96 μg/mL, Day 3",72.7%
same,Daily cell growth Day 1×2×3,[6]; [11],1.65
same,RSG,[6]; [11],0.086
same,Adjusted CE0,[6]; [11],29.1%
same,CE0,[6]; [11],42.0%
same,RS0,[6]; [11],36.3%
same,CE3,[6]; [12],1.160
same,RS,[6]; [12],79.4
same,CE0,[6]; [12],74.8%
same,RS0,[6]; [12],79.4%
same,CE3,"[6]; Short treatment, -S9 mix, 24.10 μg/mL, Day 3",116.0%
same,CE3,[6]; [13],0.866
same,Daily cell growth Day 1×2×3,[6]; [13],13.83
same,RS,[6]; [13],65.5
same,RSG,[6]; [13],0.667
same,Adjusted CE0,[6]; [13],56.8%
same,CE0,[6]; [13],61.3%
same,RS0,[6]; [13],65.5%
same,CE3,"[6]; Short treatment, -S9 mix, 48.10 μg/mL, Day 3",86.6%
same,CE3,[6]; [14],0.950
same,Daily cell growth Day 1×2×3,[6]; [14],13.07
same,RS,[6]; [14],64.6
same,RSG,[6]; [14],0.630
same,Adjusted CE0,[6]; [14],56.1%
same,CE0,[6]; [14],63.1%
same,RS0,[6]; [14],64.6%
same,CE3,"[6]; Short treatment, -S9 mix, 96.30 μg/mL, Day 3",95.0%
same,CE3,[6]; [15],0.866
same,Daily cell growth Day 1×2×3,[6]; [15],17.46
same,RSG,[6]; [15],0.993
same,Adjusted CE0(%),[6]; [15],178.3%
same,CE0 (%),[6]; [15],81.6%
same,RS0 (%),[6]; [15],79.6%
same,CE3 (%),"[6]; dose 6.02 μg/mL, 24h treatment, -S9 mix, Day 3",86.6%
same,CE3,[6]; [16],1.012
same,CE0 (%),[6]; [16],95.0%
same,RS0 (%),[6]; [16],73.2%
same,CE3 (%),"[6]; dose 24.10 μg/mL, 24h treatment, -S9 mix, Day 3",101.2%
same,CE3,[6]; [17],0.921
same,RS,[6]; [17],97.0
same,CE3,[6]; [18],0.950
same,Daily cell growth Day 1×2×3,[6]; [18],11.59
same,RSG,[6]; [18],0.659
same,Adjusted CE0(%),[6]; [18],99.3%
same,CE0 (%),[6]; [18],74.8%
same,RS0 (%),[6]; [18],44.3%
same,CE3 (%),"[6]; dose 48.1 μg/mL, 24h treatment, -S9 mix, Day 3",95.0%
same,CE3,[6]; [19],0.841
same,RS,[6]; [19],101.5
same,CE3,[6]; [20],0.727
same,RS,[6]; [20],78.3
same,CE3,[6]; [21],0.866
same,Daily cell growth Day 1×2×3,[6]; [21],9.04
same,RSG,[6]; [21],0.514
same,Adjusted CE0(%),[6]; [21],55.5%
same,CE0 (%),[6]; [21],59.6%
same,RS0 (%),[6]; [21],24.8%
same,CE3 (%),"[6]; dose 96.3 μg/mL, 24h treatment, -S9 mix, Day 3",86.6%
same,RS,"[6]; dose 770 μg/mL, short treatment, +S9 mix",36.3
same,"TK6 assay result (mutant frequency increase, judgment)",[7]; 4h treatment (-S9),increased significantly
same,"TK mutation assay, Long term","[7]; 24 h, without S9",Pos
same,"TK6 assay result (mutant frequency increase, judgment)",[7]; 24h treatment (-S9),increased significantly
same,"Dunnett type test, test statistic",[7]; [22],3.866
same,"Trend test, test statistic",[7]; [22],2.800
same,%SG,[7]; [12],54.1%
same,MF,[7]; [12],14.5
same,%SG,[7]; [13],55.8%
same,MF,[7]; [13],17.4
same,Mut. freq. N-MF,[7]; [13],7.7 ×10-6
same,Mut. freq. S-MF,[7]; [13],9.7 ×10-6
same,Mut. freq. T-MF,[7]; [13],17.4 ×10-6
same,%SG,[7]; [14],62.6%
same,MF,[7]; [14],16.9
same,Mut. freq. N-MF,[7]; [14],6.3 ×10-6
same,Mut. freq. S-MF,[7]; [14],10.6 ×10-6
same,Mut. freq. T-MF,[7]; [14],16.9 ×10-6
same,"Dunnett type test, test statistic",[7]; [23],3.458
same,"Trend test, test statistic",[7]; [23],1.593
same,"Dunnett type test, test statistic",[7]; [24],2.435
same,"Trend test, test statistic",[7]; [24],2.615
same,TK6 assay overall judgment,[7]; all treatments,positive
same,%SG,[7]; [15],39.7%
same,Mut. freq. (×10-6) N-MF,[7]; [15],11.7 ×10-6
same,Mut. freq. (×10-6) S-MF,[7]; [15],7.7 ×10-6
same,Mut. freq. (×10-6) T-MF,[7]; [15],19.4 ×10-6
same,%SG,[7]; [16],59.9%
same,%SG,[7]; [17],62.7%
same,%SG,[7]; [18],78.5%
same,Mut. freq. (×10-6) N-MF,[7]; [18],3.0 ×10-6
same,Mut. freq. (×10-6) S-MF,[7]; [18],11.1 ×10-6
same,Mut. freq. (×10-6) T-MF,[7]; [18],14.2 ×10-6
same,%SG,[7]; [19],65.0%
same,Mut. freq. (×10-6) N-MF,[7]; [19],7.5 ×10-6
same,Mut. freq. (×10-6) S-MF,[7]; [19],14.0 ×10-6
same,Mut. freq. (×10-6) T-MF,[7]; [19],21.6 ×10-6
same,%SG,[7]; [20],70.4%
same,Mut. freq. (×10-6) N-MF,[7]; [20],5.2 ×10-6
same,Mut. freq. (×10-6) S-MF,[7]; [20],12.4 ×10-6
same,Mut. freq. (×10-6) T-MF,[7]; [20],17.6 ×10-6
same,%SG,[7]; [21],76.1%
same,Mut. freq. (×10-6) N-MF,[7]; [21],5.6 ×10-6
same,Mut. freq. (×10-6) S-MF,[7]; [21],17.9 ×10-6
same,Mut. freq. (×10-6) T-MF,[7]; [21],23.5 ×10-6
same,"TK mutation assay, With S9","[7]; short-term 4 h, with rat liver S9",Neg
same,"TK mutation assay, Without S9","[7]; short-term 4 h, without S9",Pos
same,Carcinogenicity Studies,[3],Neg
O=[N+]([O-])c1cc(N(CCO)CCO)ccc1NCCO [HC Blue No.2],MLA (4 h),"[1]; presence of S9, ref [27], [29], [68]",positive
same,MLA (−S9),[1]; ref [27],positive
same,"MLA (TK gene locus), With S9",[1]; ref [27],Pos
same,"MLA (TK gene locus), Without S9",[1]; ref [27],Pos
same,The Highest Specific Activity and the Strain,"[5]; TA98 with S9, ref Table 2",153.6 revertants/mg in TA98 with S9
same,"Bacterial reverse mutation assay, With S9",[5],Pos
same,"Bacterial reverse mutation assay, Without S9",[5],Pos
same,carcinogenicity classification,[3],non-carcinogenic
same,Carcinogenicity Studies,[3],Neg
same,"TK mutation assay, Long term",[4],Pos
same,"TK mutation assay, With S9",[4],Neg
same,"TK mutation assay, Without S9",[4],Neg
same,"Trend test, test statistic",[4],2.719
"CNc1ccc(N(CCO)CCO)cc1[N+](=O)[O-] [HC blue No. 1, reference compound]",mutagenicity in MLA (+S9),"[1]; +S9, ref [68]",positive with weak response
same,MLA (−S9),"[1]; ref [27], [85]",negative
same,carcinogenicity classification,[3],carcinogen
IC(I)I [Iodoform],"Bacterial reverse mutation assay, With S9",[5],Pos
same,"Bacterial reverse mutation assay, Without S9",[5],Pos
same,MF,"[7]; 6.25 μg/mL, -S9 mix, graph sheet Short-S9",2.7
same,%SG,"[7]; 6.25 μg/mL, short treatment, -S9 mix",88.0%
same,MF,"[7]; 50.0 μg/mL, -S9 mix, graph sheet Short-S9",3.0
same,%SG,"[7]; 50.0 μg/mL, short treatment, -S9 mix",48.2%
same,MF,"[7]; 100.0 μg/mL, -S9 mix, graph sheet Short-S9",4.5
same,%SG,"[7]; 100.0 μg/mL, short treatment, -S9 mix",69.7%
same,MF,"[7]; 200.0 μg/mL, -S9 mix, graph sheet Short-S9",3.2
same,%SG,"[7]; 200.0 μg/mL, short treatment, -S9 mix",80.4%
same,%SG,"[7]; 24 h treatment -S9 mix, dose 10.00 μg/mL",71.6%
same,%SG,"[7]; 24 h treatment -S9 mix, dose 20.00 μg/mL",71.8%
same,%SG,"[7]; 24 h treatment -S9 mix, dose 30.00 μg/mL",87.1%
same,%SG,"[7]; 24 h treatment -S9 mix, dose 40.0 μg/mL",100.0%
same,%SG,"[7]; 24 h treatment -S9 mix, dose 50.0 μg/mL",100.0%
same,%SG,"[7]; 24 h treatment -S9 mix, dose 60.0 μg/mL",79.6%
same,%SG,"[7]; 24 h treatment -S9 mix, dose 70.0 μg/mL",85.6%
same,%SG,"[7]; Short treatment +S9 mix, dose 25 μg/mL",65.1%
same,%SG,"[7]; Short treatment +S9 mix, dose 50 μg/mL",57.3%
same,%SG,"[7]; Short treatment +S9 mix, dose 100 μg/mL",65.1%
same,%SG,"[7]; Short treatment +S9 mix, dose 200 μg/mL",61.0%
same,Carcinogenicity Studies,[3],Neg
same,MF at high-dose levels,[4],dose-dependent increase in MF
same,TK6 assay overall judgment,[4],negative
same,"TK6 assay result (mutant frequency increase, judgment)",[4],Negative
same,"TK mutation assay, Long term",[4],Neg
same,"TK mutation assay, With S9",[4],Neg
same,"TK mutation assay, Without S9",[4],Neg
